# In US9770469B2, “Methods of reprogramming renal cells” (Tel HaShomer Medical Research Infrastructure and Services …, priority 2009, dated 2017):
# What was measured:
# human adult kidney cells [1] = test: qRT-PCR gene expression after TSA/AzaC or VPA treatment; type: cell-based
# Description: Tissue Samples: human tissues samples were collected according to the Helsinki requirements. Human fetal kidney cells (HFK) were collected from elective abortions at fetal gestational age ranged from 15 to 19 weeks. Normal human adult kidney cell (HAK) samples were retrieved from borders of RCC tumors from partial nephrectomy patients. Establishment of Primary Cultures from Human Kidney Tissues: Collected tissues were minced in HBSS, soaked in IMDM Medium (Invitrogen) supplemented with 0.1% collagenase II (Invitrogen). The digested tissue was then gradually forced through a 100 μm, 70 μm and 50 μm cell strainer to achieve a single cell suspension, and cultured in growth medium supplemented with FBS 10%, L-Glutamin 1%, Pen-Strep 1% and growth factors: 50 ng/ml of bFGF, 50 ng/ml of EGF and 5 ng/ml of SCF (R&D systems). Cell Treatment: […] Otherwise, cells were treated for 24 hours with growth medium supplemented with the combination of 75 μM TSA (Sigma) and 250 μM 5-AZA (Sigma) or with 100% Ethanol and Acetic Acid (Acetic Acid: H2O 1:1) for control sample. […] 24 hours prior to harvesting VPA at a concentration of 4 mM was added to the cell culture. Quantitative Reverse Transcription-PCR: Total RNA from kidney tissue cultured cells was isolated using the TRIZOL reagent (Invitrogen) according to the manufacturer's protocols. cDNA synthesis was carried out using Verso kit (Thermo scientific) with Random primers. Quantitative RT PCR was performed using an ABI7900HT sequence detection system (Perkin-Elmer/Applied Biosystems) in the presence of SYBR green (SYBR green PCR kit; Qiagen). Each analysis reaction was performed in duplicates or triplicates. GapDH was used as an endogenous control throughout all experimental analyses. Analysis was performed using the −ΔΔCt method, which determines fold changes in gene expression relative to a comparator sample.
# human adult kidney cells [2] = test: Western blot for Six2 and Wt1 after VPA; type: cell-based; settings: 24 h after VPA exposure
# Protocol: (§1) Cell Treatment: Cells were treated for 24 hours with growth medium supplemented with 1, 2, or 4 mM VPA (Sigma) or with H2O for control sample. Otherwise, cells were treated for 24 hours with growth medium supplemented with the combination of 75 μM TSA (Sigma) and 250 μM 5-AZA (Sigma) or with 100% Ethanol and Acetic Acid (Acetic Acid: H2O 1:1) for control sample. […] 24 hours prior to harvesting VPA at a concentration of 4 mM was added to the cell culture.
# (§2) Western Blot: AK, FK (treated and untreated) and Melanoma cells were harvested with Tripsin/EDTA. Cell extracts were prepared with lysis buffer (50 mM Tris-HCl, 150 mM NaCl, 0.1 mM EDTA, 0.5 mM DTT, 1.5 mM MgCl, 0.5% Triton-X) and their concentrations were detected by BCA protein assay kit (Thermo scientific). 100 μg of total proteins were heated at 95° C. for 5 min with laemmli sample buffer (Bio-rad) and then were loaded on SDS-10% polyacrylamide gel. After electrophoresis, proteins were transferred to nitrocellulose membrane that was blocked with 5% nonfat dry milk overnight at 4° C. The membrane was reacted with the required antibodies, namely Six2 (Affinity Bioreagents), WT1 (Santa Cruz), goat anti-rabbit IgG (Jackson). The membrane was reacted with ECL substrate (Thermo scientific) and was exposed to medical x-ray film (Fuji).
# human fetal kidney cells [3] = test: Western blot for Six2 and Wt1 after VPA; type: cell-based; settings: 24 h after VPA exposure
# Protocol: as §1, §2
# human adult kidney cells [4] = test: Flow cytometry of renal progenitor surface markers after VPA; type: cell-based; settings: 24 h 4 mM VPA, FACS
# Protocol: as §1
# (§3) Flow Cytometry: Cells were detached from culture plated with non-enzymatic cell dissociation solution (Sigma-Aldrich). Cells (1×10^5 in each reaction) were suspended in 50 μl of FACS buffer [0.5% BSA and 0.02% sodium azid in PBS (Sigma-Aldrich and Invitrogen, respectively)] and blocked with FcR Blocking Reagent (MiltenyiBiotec) and human serum (1:1) for 15 minutes. Cells were then incubated for 45 minutes with the following primary antibodies: CD24-PE, NCAM1-PE, (both from eBioscience), CD133-APC, PSA-NCAM (both from MiltenyiBiotec), FZD7-biotin, NTRK2 (both from R&D Systems) or a matching isotype control. Cells were washed with FACS buffer, and incubated for 30 minutes with a secondary antibody if needed: goat anti mouse Streptavidin-APC (BD) or goat anti mouse Alexa Fluor 647 (Invitrogen). Cell's labeling was detected using FACSCalibur (BD). Flow cytometry results were analyzed using FlowJo analysis software. Viable cells were gated by both their FSC/SSC profile and 7AAD (eBioscience) exclusion.
# human fetal kidney cells [5] = test: as above; type: cell-based; settings: 24 h 4 mM VPA, FACS
# Protocol: as §1, §3
# HAK cells = test: Culture passage with transient or constant VPA (qRT-PCR, morphology); type: cell-based, human; settings: for cell morphology: culture passage
# Protocol: Quantitative Reverse Transcription-PCR: Total RNA from kidney tissue cultured cells was isolated using the TRIZOL reagent (Invitrogen) according to the manufacturer's protocols. cDNA synthesis was carried out using Verso kit (Thermo scientific) with Random primers. Quantitative RT PCR was performed using an ABI7900HT sequence detection system (Perkin-Elmer/Applied Biosystems) in the presence of SYBR green (SYBR green PCR kit; Qiagen). Each analysis reaction was performed in duplicates or triplicates. GapDH was used as an endogenous control throughout all experimental analyses. Analysis was performed using the −ΔΔCt method, which determines fold changes in gene expression relative to a comparator sample. Maintaining re-induction of Six2/Osr1 in cultured human kidney cells is potentially important if such cells were to be propagated in vitro for the purpose of cell therapy. The present inventors therefore determined whether Six2 and Osr1 are maintained upon tissue culture passage of adult cells. Two treatment protocols were employed; the first, 24-hour exposure to 4 mM VPA and the second constant exposure to VPA.
# [6] = HAK cells, 24 h, TSA/AzaC or VPA 1-4 mM, vs untreated control
# [7] = HAK cells, 24 h, TSA/AzaC or all VPA concentrations (1, 2, 4 mM)
# [8] = P0 cells, transient 24-hour exposure to 4 mM VPA
# [9] = later passages, transient 24-hour exposure to 4 mM VPA
smiles,measurement,setting,value
"CCCC(CCC)C(=O)O [VPA, valproic acid]",Six2 mRNA reinduction,"human adult kidney cells [1]; HAK cells, 24 h, TSA 75 μM + 5-AZA 250 μM, or VPA 1, 2, 4 mM (dose-dependent), vs untreated control",five-fold
same,Vimentin mRNA expression change,"human adult kidney cells [1]; HAK cells, 24 h, TSA/AzaC or VPA",mostly unchanged
same,Osr1 mRNA expression change (re-activation),human adult kidney cells [1]; [6],upregulated in a dose-dependent manner
same,Pax2 mRNA expression change (re-activation),human adult kidney cells [1]; [6],mildly elevated
same,Sall1 mRNA expression change (re-activation),human adult kidney cells [1]; [6],upregulated in a dose-dependent manner
same,Wt1 mRNA expression change (re-activation),human adult kidney cells [1]; [6],reduced
same,Klf4 mRNA expression change,human adult kidney cells [1]; [7],significantly up-regulated
same,Nanog mRNA expression change,human adult kidney cells [1]; [7],significantly up-regulated
same,E-cadherin mRNA expression change,"human adult kidney cells [1]; HAK cells, 24 h, TSA/AzaC, or VPA (effect at 2 mM, 4 mM)",mildly elevated
same,Oct4 mRNA expression change,"human adult kidney cells [1]; HAK cells, 24 h treatment",remained unchanged
same,Wnt4 mRNA levels,human adult kidney cells [1]; VPA-treated adult kidney cells,strong up-regulation
same,β-catenin mRNA levels,human adult kidney cells [1]; VPA-treated adult kidney cells,elevation
same,Six2 protein levels,human adult kidney cells [2]; 4 mM,increment
same,Wt1 protein levels,human adult kidney cells [2]; 2 and 4 mM,no changes
same,Six2 protein levels,human fetal kidney cells [3]; 4 mM,increment
same,Wt1 protein levels,human fetal kidney cells [3]; 2 and 4 mM,no changes
same,PSA-NCAM surface expression elevation,human adult kidney cells [4]; especially in the adult kidney,5-10 fold
same,CD133 surface expression,human adult kidney cells [4]; adult kidney cells,milder changes
same,NCAM surface expression levels,human adult kidney cells [4]; adult kidney cells,significant upregulation
same,CD133 surface expression,human fetal kidney cells [5],milder changes
same,NCAM surface expression levels,human fetal kidney cells [5],significant upregulation
same,PSA-NCAM surface expression levels,human fetal kidney cells [5],significant upregulation
same,Osr1 gene levels,HAK cells; [8],re-induced
same,Six2 gene levels,HAK cells; [8],re-induced
same,Osr1 gene levels upon culture passage,"HAK cells; constant VPA exposure, P1-P3",significant Six2 and Osr1 re-induction
same,Six2 gene levels upon culture passage,"HAK cells; constant VPA exposure, P1-P3",significant Six2 and Osr1 re-induction
same,Six2 gene levels,"HAK cells; constant VPA exposure, P3 cells",even further up-regulated
same,cell morphology,HAK cells; constant VPA exposure,epithelial-like cell morphology
same,Osr1 gene levels,HAK cells; [9],remained similar to controls
same,Six2 gene levels,HAK cells; [9],remained similar to controls
same,cell morphology,HAK cells; transient 24-hour VPA exposure,fibroblastic morphology
